# Tests used:
# [1] = Inhibition of nucleocapsin protein in FIV infected in cat FL-4 cells assessed as reduction in viral RNA replication measured after 7 days by qRT-PCR analysis; type: cell-based; details: Feline immunodeficiency virus, FL-4, 168 h
# [2] = Cytotoxicity against cat FL-4 cells measured after 7 days by MTT assay; type: cell-based, Felis catus
# [3] = Cytotoxicity against cat CRFK cells measured after 24 hrs by MTT assay; type: cell-based, Felis catus
# [4] = Therapeutic index, ratio of CC50 for cat FL-4 cells to EC50 for inhibition of nucleocapsin protein in FIV infected in cat FL-4 cells; type: toxicity, cell-based; details: FL-4 cells (FIV infected for EC50), read-out: Ratio CC50/EC50
SMILES,EC50 [1] [µM],CC50 at 168 h [2] [µM],CC50 at 24 h [3] [µM],selectivity ratio [4]
Cc1cn([C@H]2C[C@H](N=[N+]=[N-])[C@@H](CO)O2)c(=O)[nH]c1=O [ZIDOVUDINE],2.7,> 100,> 100,> 37
N#Cc1c2n[se]sc-2c(Cl)c1Cl,3.8,18,> 100,4.7
ClC1=C2S[Se]N=C2c2ccccc2C(Cl)=C1Cl,0.25,0.83,> 100,3.3
Clc1c2s[se]nc-2c2ccccc12,1.2,5.7,98,4.6
c1ccc(-c2c3s[se]nc-3c3ccccc23)cc1,0.26,50,56,194
CCOC(=O)c1c2n[se]sc-2c(Cl)c1Cl,0.082,5.1,> 100,61.9
Clc1c2n[se]sc-2c(Cl)c1Cl,1.2,6.5,62,5.4
c1ccc2c(c1)N=C1S[Se]N=C1O2,0.24,5.8,> 100,24

# More lines, main results first:
EC50 [1] [µM],SMILES,CC50 at 168 h [2] [µM],CC50 at 24 h [3] [µM],selectivity ratio [4]
1.4,Clc1c2ssnc-2c2ccccc12,49,> 100,36.3
1.5,N#Cc1c2nssc-2c(Cl)c1Cl,39,> 100,26.8
4,c1ccc2c(c1)N=C1SSN=C1O2,57,> 100,14
0.31,CCOC(=O)c1c2nssc-2c(Cl)c1Cl,3.5,> 100,11.4
25.7,c1ccc(-c2c3ssnc-3c3ccccc23)cc1,> 100,> 100,> 4
3,ClC1=C2SSN=C2c2ccccc2C(Cl)=C1Cl,9.3,> 100,3.1
1.6,Clc1c2nssc-2c(Cl)c1Cl,6.1,68,3.8

# From ChEMBL document CHEMBL4390707, “Synthesis and comparison of substituted 1,2,3-dithiazole and 1,2,3-thiaselenazole as inhibitors of the feline immunodeficiency virus (FIV) nucleocapsid protein as a model for HIV infection” (Bioorg Med Chem Lett, 2019)
